According to ChEMBL document CHEMBL5528001, “Synthetic product-based approach toward potential antileishmanial drug development” (Eur J Med Chem, 2024):

Assays:
Leishmania infantum [1] = experiment: Antileishmanial activity against Leishmania infantum MHOM/FR/2008/LEM5700 infected in BALB/c mouse assessed as reduction of parasite burden in liver at 10 mg/kg, po administered for 5 days relative to control; type: functional; parameters: scale not given: the % may be the effect or the level left; conditions: time 5 day
[2] = Cytotoxicity against human WI-38 cells assessed as reduction in cell viability incubated for 48 hrs by MTT assay; type: toxicity, cell-based
Leishmania infantum [3] = experiment: Antileishmanial activity against Leishmania infantum amastigotes infected in human THP-1 cells assessed as reduction in parasite growth; type: functional, organism-based
Leishmania infantum [4] = experiment: Antileishmanial activity against Leishmania infantum promastigote assessed as inhibition of parasite growth after 72 hrs by MTT assay; type: functional, organism-based
Leishmania infantum [5] = experiment: Antileishmanial activity against Leishmanial infantum amastigotes assessed as inhibition of parasite growth measured after 72 hrs by MTT assay; type: functional, organism-based
HepG2 = experiment: Cytotoxicity against human HepG2 cells assessed as growth inhibition of cells measured for 48 hrs by MTT assay; type: functional, cell-based; conditions: HepG2, 48 h
[6] = Selectivity index, ratio of CC50 for cytotoxicity against HEK293 cells to IC50 for antileishmanial activity against Leishmania major IR-173 promastigotes; type: toxicity, cell-based; conditions: human, read-out: Ratio CC50/IC50
Leishmania major = experiment: Antileishmanial activity against Leishmania major MHOM/IR/-173 assessed as reduction in parasite viability measured for 48 hrs by alamar-blue dye based analysis; type: functional, organism-based; conditions: MHOM/IR/-173, 48 h
Leishmania donovani [7] = experiment: Antileishmanial activity against Leishmania donovani MHOM/IN/95/9515 assessed as reduction in parasite growth measured for 72 hrs by resazurin dye based analysis; type: functional, organism-based; conditions: MHOM/IN/95/9515, 72 h
Leishmania infantum [8] = experiment: Antileishmanial activity against Leishmania infantum LEM 3049 isolate promastigote assessed as reduction in parasite growth after 72 hrs by MTT assay; type: functional, organism-based; conditions: LEM 3049, 72 h
Leishmania tropica = experiment: Antileishmanial activity against Leishmania tropica MHOM/A7/1974/SAF-K27 assessed as reduction in parasite growth incubated for 48 hrs by Neubauer hemocytometer analysis; type: functional, organism-based; conditions: MHOM/A7/1974/SAF-K27, 48 h
Leishmania donovani [9] = experiment: Antileishmanial activity against Leishmania donovani amastigotes MHOM/SD/62/1S assessed as inhibition of cell growth measured after 48 hrs by resazurin dye based assay; type: functional, organism-based
Leishmania donovani [10] = experiment: Antileishmanial activity against Leishmania donovani promastigotes MHOM/SD/62/1S assessed as inhibition of cell growth measured after 48 hrs by resazurin dye based assay; type: functional, organism-based
Leishmania donovani [11] = experiment: Antileishmanial activity against Leishmania donovani 9515 amastigotes assessed as inhibition of parasite growth incubated for 48 hrs by resazurin dye based assay; type: functional, organism-based; conditions: Leishmania donovani, 9515, 48 h
[12] = Cytotoxicity against African green monkey Vero cells assessed as reduction in cell viability by MTT assay; type: toxicity, cell-based, Chlorocebus sabaeus

With `COc1ccc(Br)cc1CN(C)C12CC3CC(CC(C3)C1)C2` the Activity (Leishmania infantum [1]) was 59%, the CC50 at 48 h [2] was 63.7 µM and the IC50 (Leishmania infantum [3]) was 0.32 µM.

`O=C(CCCc1cc2ccccc2[nH]1)Nc1nc2ccccc2c2ccccc12` showed an EC50 (Leishmania infantum [4]) of 8.53 µM, an EC50 (Leishmania infantum [5]) of 8.9 µM and an IC50 (HepG2) of 0.01 µM.

For `Cc1ccc(Cn2cc(COC3=CC(=O)c4ccccc4C3=O)nn2)cc1`, the selectivity ratio [6] was greater than 55, the IC50 (Leishmania major) was 1.48 µM and the IC50 (Leishmania donovani [7]) was 0.81 µM.

Work on `O=C(N/N=C1\C(=O)N(CC(O)COc2cc(=O)oc3ccccc23)c2ccccc21)c1ccncc1` (stereo not given) yielded an IC50 (Leishmania infantum [8]) of 0.03 µM.

Work on `O=C(N/N=C\c1ccc([N+](=O)[O-])o1)c1ccc(OS(=O)(=O)c2cccnc2)cc1` yielded an IC50 (Leishmania tropica) of 0.04 µM, an IC50 (Leishmania donovani [9]) of 0.09 µM and an IC50 (Leishmania donovani [10]) of 0.09 µM. For the same compound, the IC50 (Leishmania donovani [11]) was 0.09 µM and the IC50 [12] was 3.26 µM.
